Measured values from patent US6518268B1, “Telomerase inhibitors and methods of their use” (Geron Corporation, priority 1999, dated 2003).

Legend:
[1] = target: T1, telomerase in human renal carcinoma cell line ACHN (Homo sapiens, UniProt O14746); experiment: Telomerase activity in extract of agent-treated ACHN cells (TRAP assay); type: cell-based; details: contact 3 days
T1 construct: human renal carcinoma cell line ACHN for 3 days, and then a cell extract was prepared; endogenous in cells; host or cells: ACHN human renal carcinoma cells; CHAPS extract after 3 days of treatment
T1 sequence (O14746 whole entry): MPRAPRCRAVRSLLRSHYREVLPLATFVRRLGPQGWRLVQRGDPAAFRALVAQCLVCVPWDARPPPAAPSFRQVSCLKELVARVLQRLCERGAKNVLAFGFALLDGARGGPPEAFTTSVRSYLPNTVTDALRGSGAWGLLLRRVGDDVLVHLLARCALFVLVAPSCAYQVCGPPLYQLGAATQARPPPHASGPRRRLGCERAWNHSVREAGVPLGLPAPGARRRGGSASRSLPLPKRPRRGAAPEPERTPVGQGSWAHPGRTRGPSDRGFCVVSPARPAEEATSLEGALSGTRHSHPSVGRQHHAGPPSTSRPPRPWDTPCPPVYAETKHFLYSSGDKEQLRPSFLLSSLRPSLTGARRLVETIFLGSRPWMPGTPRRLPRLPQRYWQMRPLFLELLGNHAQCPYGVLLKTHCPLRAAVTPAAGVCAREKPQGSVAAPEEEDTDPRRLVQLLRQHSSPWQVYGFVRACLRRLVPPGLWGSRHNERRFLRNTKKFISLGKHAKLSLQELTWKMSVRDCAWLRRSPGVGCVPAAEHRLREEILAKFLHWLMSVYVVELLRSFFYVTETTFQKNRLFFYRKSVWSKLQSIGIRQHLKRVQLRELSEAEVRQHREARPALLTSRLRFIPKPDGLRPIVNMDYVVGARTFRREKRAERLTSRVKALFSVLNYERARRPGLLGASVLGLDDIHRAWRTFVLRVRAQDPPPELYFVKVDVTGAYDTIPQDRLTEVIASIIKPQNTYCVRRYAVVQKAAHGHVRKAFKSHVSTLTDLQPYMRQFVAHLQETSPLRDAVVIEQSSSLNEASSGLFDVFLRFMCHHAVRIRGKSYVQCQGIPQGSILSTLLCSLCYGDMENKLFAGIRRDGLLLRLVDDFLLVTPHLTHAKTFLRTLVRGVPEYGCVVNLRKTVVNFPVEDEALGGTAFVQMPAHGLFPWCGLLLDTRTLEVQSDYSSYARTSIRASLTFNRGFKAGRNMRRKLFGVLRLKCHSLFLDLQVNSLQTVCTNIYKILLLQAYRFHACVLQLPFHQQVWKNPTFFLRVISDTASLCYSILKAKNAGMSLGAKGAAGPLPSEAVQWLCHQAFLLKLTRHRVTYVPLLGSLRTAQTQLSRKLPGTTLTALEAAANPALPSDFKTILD
T1 sequence (O60832 whole entry partner): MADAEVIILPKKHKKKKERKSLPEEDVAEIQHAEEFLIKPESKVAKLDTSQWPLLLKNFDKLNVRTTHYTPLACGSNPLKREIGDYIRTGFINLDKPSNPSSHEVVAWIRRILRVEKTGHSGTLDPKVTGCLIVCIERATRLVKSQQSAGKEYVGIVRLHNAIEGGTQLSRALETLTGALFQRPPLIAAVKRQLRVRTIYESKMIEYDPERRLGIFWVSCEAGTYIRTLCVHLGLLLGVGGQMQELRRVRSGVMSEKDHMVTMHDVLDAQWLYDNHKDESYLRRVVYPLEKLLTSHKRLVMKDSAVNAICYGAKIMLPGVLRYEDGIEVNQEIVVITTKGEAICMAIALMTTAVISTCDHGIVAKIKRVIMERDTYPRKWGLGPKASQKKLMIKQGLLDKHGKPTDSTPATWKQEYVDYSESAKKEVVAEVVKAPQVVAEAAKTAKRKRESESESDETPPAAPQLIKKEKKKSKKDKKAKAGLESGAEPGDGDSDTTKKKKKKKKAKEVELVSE
T1 sequence (Q9NPE3 whole entry partner): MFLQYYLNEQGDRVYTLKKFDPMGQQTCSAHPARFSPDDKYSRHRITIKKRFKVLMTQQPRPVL
T1 sequence (Q9NX24 whole entry partner): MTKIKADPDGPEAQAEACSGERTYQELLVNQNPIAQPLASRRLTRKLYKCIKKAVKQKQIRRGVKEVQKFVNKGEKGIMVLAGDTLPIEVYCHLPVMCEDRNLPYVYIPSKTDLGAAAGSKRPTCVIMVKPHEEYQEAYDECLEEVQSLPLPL
T1 sequence (Q9NY12 whole entry partner): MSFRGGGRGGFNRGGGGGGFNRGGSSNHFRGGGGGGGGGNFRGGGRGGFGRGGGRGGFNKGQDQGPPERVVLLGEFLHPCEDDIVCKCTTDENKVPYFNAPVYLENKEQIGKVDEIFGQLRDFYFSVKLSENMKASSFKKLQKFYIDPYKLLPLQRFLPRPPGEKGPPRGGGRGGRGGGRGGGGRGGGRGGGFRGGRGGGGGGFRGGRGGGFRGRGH
Method: That is, a cell extract was prepared using a buffer solution containing 0.5% CHAPS. Using the extract, TRAP (Telomeric Repeat Amplification Protocol) assay was carried out in vitro (TRAPEZE™ ELISA Telomerase Detection Kit, manufactured by Intergen). The ratio (%) of the enzyme activity in the extract from agent-treated cells to the enzyme activity in the extract from agent-untreated cells was calculated.

[2] = target: T2, partially purified telomerase from a nuclear extract of HEK293 cells (Homo sapiens, UniProt O14746); experiment: In vitro telomerase inhibition, membrane hybridization method (U.S. Pat. No. 5,760,062); type: biochemical; details: for IC50: partially purified telomerase from nuclear extract of HEK293 cells; for residual activity of in vitro telomerase activity (in parenthesis): in the presence of the compound at a concentration of 10 μm
T2 construct: partially purified telomerase from a nuclear extract of HEK293 cells; endogenous in cells; host or cells: HEK293 cells, nuclear extract, partially purified
T2 sequence (O14746 whole entry): as the sequence (O14746 whole entry) above
T2 sequence (O60832 whole entry partner): as the sequence (O60832 whole entry partner) above
T2 sequence (Q9NPE3 whole entry partner): as the sequence (Q9NPE3 whole entry partner) above
T2 sequence (Q9NX24 whole entry partner): as the sequence (Q9NX24 whole entry partner) above
T2 sequence (Q9NY12 whole entry partner): as the sequence (Q9NY12 whole entry partner) above
Method: Alternatively, telomerase inhibitory activity of the compounds was measured in accordance with a known method (U.S. Pat. No. 5,760,062). That is, a dimethyl sulfoxide (DMSO) solution of each agent was mixed with partially purified telomerase from a nuclear extract of HEK293 cells and incubated in the presence of an oligodeoxynucleotide to be used as the substrate and deoxynucleotide triphosphate. The obtained reacted product (DNA having a telomere sequence) was adsorbed on a membrane, and hybridization was carried out using a labeled oligonucleotide probe having a sequence complementary to the telomere sequence. The inhibition ratio was calculated based on the ratio of the signal of label on the membrane in the presence of the agent to the signal of label in the absence of the agent (control). Also, concentration of each agent which inhibits 50% of the enzyme activity based on the control was used as IC50.

[3] = concentration 30 μM, read-out: Residual Enzyme Activity (%)
[4] = concentration 10 μM, read-out: Residual Enzyme Activity (%)

## Cc1ccc([S+]([O-])c2ccc([N+](=O)[O-])cc2C=C2SC(=O)NC2=O)cc1 (stereo not drawn) [Compound 4]
[1]; concentration 10 μM
  Residual Enzyme Activity (%): 16%
[2]
  IC50: 30 µM

## Cc1ccc(S(=O)(=O)c2ccc([N+](=O)[O-])cc2C=C2SC(=O)NC2=O)cc1 [Compound 5]
[1]; concentration 10 μM
  Residual Enzyme Activity (%): 16%
[2]
  IC50: 23 µM

## Cc1ccc(Oc2cccc(C=C3SC(=O)NC3=O)c2)cc1 [Compound 12]
[1]; concentration 100 μM
  Residual Enzyme Activity (%): 26%
[2]
  IC50: 5.8 µM

## O=C1NC(=O)C(=Cc2ccc(Oc3ccccc3)cc2)S1 [Compound 14]
[1]; concentration 100 μM
  Residual Enzyme Activity (%): 47%
[2]
  IC50: 4 µM

## O=C1NC(=O)C(=Cc2cc([N+](=O)[O-])ccc2OCc2ccccc2)S1 [Compound 16]
[1]; concentration 100 μM
  Residual Enzyme Activity (%): 0%
[2]
  IC50: 26 µM

## Cc1ccc(COc2ccc([N+](=O)[O-])c(C=C3SC(=O)NC3=O)c2)cc1 [Compound 21]
[1]; concentration 30 μM
  Residual Enzyme Activity (%): 35%
[2]
  IC50: 4.3 µM

## O=C1NC(=S)SC1=Cc1cc([N+](=O)[O-])ccc1Sc1ccc(Cl)cc1 [Compound 37]
[1]; concentration 30 μM
  Residual Enzyme Activity (%): 39%
[2]
  IC50: 6 µM

## CCN(CC)C(=O)c1cc(C=C2SC(=O)NC2=O)c(Sc2ccc(Cl)cc2)s1 [Compound 54]
[1]; [3]
  remaining activity at 30 µM: 50%
[2]
  IC50: 7.4 µM

## CN1CCN(C(=O)c2cc(C=C3SC(=O)NC3=O)c(Sc3ccc(Cl)cc3)s2)CC1 [Compound 56]
[1]; [3]
  remaining activity at 30 µM: 26%
[2]
  IC50: 7.9 µM

## O=C1NC(=O)C(=Cc2cc(C(=O)N3CCOCC3)sc2Sc2ccc(Cl)cc2)S1 [Compound 57]
[1]; [3]
  remaining activity at 30 µM: 24%
[2]
  IC50: 54 µM

## O=C1NC(=O)C(=Cc2cc(C(=O)c3ccc(Cl)cc3)c(S(=O)(=O)c3ccc(Cl)cc3)s2)S1 [Compound 66]
[1]; concentration 30 μM
  Residual Enzyme Activity (%): 0%
[2]
  IC50: 3.7 µM

## O=C1NC(=O)/C(=C/c2cc([N+](=O)[O-])ccc2[S+]([O-])c2ccc(Cl)cc2)S1 (stereo not drawn) [Compound 68]
[1]; [4]
  remaining activity at 10 µM: 18%
[2]
  IC50: 2.7 µM

## O=C1NC(=O)C(=Cc2cc([N+](=O)[O-])ccc2S(=O)(=O)c2ccc(Cl)cc2)S1 [Compound 69]
[1]; [4]
  remaining activity at 10 µM: 16%
[2]
  IC50: 0.48 µM

## O=C1NC(=O)C(=Cc2cc([N+](=O)[O-])ccc2S(=O)(=O)Cc2ccccc2)S1 [Compound 78]
[1]; [4]
  remaining activity at 10 µM: 25%
[2]
  IC50: 5.5 µM

## Cc1ccc([S+]([O-])c2ccc(C=C3SC(=O)NC3=O)cc2[N+](=O)[O-])cc1 (stereo not drawn) [Compound 82]
[1]; concentration 3 μM
  Residual Enzyme Activity (%): 23%
[2]
  residual activity of in vitro telomerase activity (in parenthesis): (51%)

## Cc1ccc(S(=O)(=O)c2ccc(C=C3SC(=O)NC3=O)cc2[N+](=O)[O-])cc1 [Compound 83]
[1]; concentration 10 μM
  Residual Enzyme Activity (%): 32%
[2]
  residual activity of in vitro telomerase activity (in parenthesis): (58%)

## O=C1NC(=O)C(=Cc2cc([N+](=O)[O-])ccc2S(=O)(=O)C2CCCCC2)S1 [Compound 86]
[1]; [4]
  remaining activity at 10 µM: 44%
[2]
  IC50: 8 µM

## Cc1ccc(Sc2ccc(-c3ccccn3)cc2C=C2SC(=O)NC2=O)cc1 [Compound 89]
[1]; concentration 30 μM
  Residual Enzyme Activity (%): 2%
[2]
  residual activity of in vitro telomerase activity (in parenthesis): (56%)

## Cc1ccc(Sc2ccc(-c3cccs3)cc2C=C2SC(=O)NC2=O)cc1 [Compound 92]
[1]; [3]
  remaining activity at 30 µM: 41%
[2]
  IC50: 5.6 µM

## CC(=O)c1ccc(Sc2ccc(C)cc2)c(C=C2SC(=O)NC2=O)c1 [Compound 97]
[1]; [3]
  remaining activity at 30 µM: 41%
[2]
  IC50: 5.6 µM

## Cc1ccc([S+]([O-])c2ccc(C(F)(F)F)cc2C=C2SC(=O)NC2=O)cc1 (stereo not drawn) [Compound 113]
[1]; concentration 30 μM
  Residual Enzyme Activity (%): 37%
[2]
  residual activity of in vitro telomerase activity (in parenthesis): (68%)

## O=C1NC(=O)C(=Cc2cc([N+](=O)[O-])ccc2[S+]([O-])c2ccncc2)S1 (stereo not drawn) [Compound 120]
[1]; concentration 10 μM
  Residual Enzyme Activity (%): 40%
[2]
  IC50: 9.3 µM

## CCc1ccc([S+]([O-])c2ccc([N+](=O)[O-])cc2/C=C2\SC(=O)NC2=O)cc1 (stereo not drawn) [Compound 133]
[1]; [4]
  remaining activity at 10 µM: 11%
[2]
  IC50: 9.1 µM

## O=C1NC(=O)C(=Cc2cc([N+](=O)[O-])ccc2[S+]([O-])c2cccc(Cl)c2)S1 (stereo not drawn) [Compound 134]
[1]; concentration 10 μM
  Residual Enzyme Activity (%): 4%
[2]
  residual activity of in vitro telomerase activity (in parenthesis): (59%)

## O=C1NC(=O)/C(=C/c2cc([N+](=O)[O-])ccc2[S+]([O-])c2ccc(Cl)c(Cl)c2)S1 (stereo not drawn) [Compound 135]
[1]; concentration 3 μM, read-out: Residual Enzyme Activity (%)
  remaining activity at 3 µM: 14%
[2]
  IC50: 4.5 µM

## Cc1ccc([S+]([O-])c2ccc(C=C3SC(=O)NC3=O)cc2Cl)cc1 (stereo not drawn) [Compound 141]
[1]; concentration 30 μM
  Residual Enzyme Activity (%): 26%
[2]
  residual activity of in vitro telomerase activity (in parenthesis): (64%)

## Cc1ccc([S+]([O-])c2ccc(C=C3SC(=O)NC3=O)cc2Br)cc1 (stereo not drawn) [Compound 143]
[1]; concentration 30 μM
  Residual Enzyme Activity (%): 36%
[2]
  residual activity of in vitro telomerase activity (in parenthesis): (62%)
